Assay results taken from US4168206A, “Impregnated disk method for testing antifungal susceptibility” (Philadelphia College of Osteopathic Medicine, priority 1977, dated 1979).
Converted amounts (≈) assume the structure as drawn. Where two headings read alike, the source gives them in different places.

What was measured:
[1] = system: Candida albicans; experiment: MIC by impregnated disk method, Candida albicans; type: cell-based; conditions: Candida albicans
Method: (§1) Stock solutions of the antifungal agents to be tested are preferably prepared by diluting the antifungal agents in the proper nutrient medium. It is presently preferred to prepare dilutions in 10 ml of the proper medium to give the following final concentrations when applied to the disks (all quantities in micrograms per milliliter): 0.05, 0.08, 0.09, 0.1; 0.1 increment increases to 0.9, 1.0; 0.5 increment increases to 10.0; and 12.0, 14.0, 20.0, 25.0 and 50.0. Disks have been prepared by placing 0.05 ml of the above dilutions of antifungal agent containing medium on 6.5 mm diameter disks in 0.01 or 0.02 ml increments. The impregnated disks are then allowed to dry at a temperature preferably below about 10° C. […] The disks may also be dried by a lyophilization or freeze drying process.
(§2) To perform the tests in accordance with the present inventions, disks impregnated with various concentrations of antifungal agent and nutrient medium and a control disk impregnated only with the corresponding nutrient medium are placed on the fungus to be tested which has been applied to the non-nutrient medium. The disks are the inoculated non-nutrient medium are then incubated at a suitable temperature for a sufficient time to promote growth of the fungus. Any temperature is suitable if it will promote growth of the fungus without adversely affecting the fungus or the activity of the antifungal agent or agents tested. The time of incubation can be determined by observing the extent of growth around the control disk. […] The zones of growth or inhibition around the disks were read at 6, 12, 24, 36 and 48 hours after the disks were placed on the tested fungus.
(§3) The minimum inhibitory concentration is defined as the lowest concentration of antifungal agent which inhibits visible growth. The disks containing concentrations of antifungal agents below the minimum inhibitory concentration show circumscribed growth of the fungus around the disk. Disks containing concentrations of antifungal agent at or above the minimum inhibitory concentration show no circumscribed growth.
(§4) Clinical isolates of various fungi listed in Table 1 were obtained from different patients diagnosed as having fungal infections. The fungal inocula were prepared by using a 24-48 hour cultures grown in yeast nitrogen base containing 1% glucose and 0.15% asparagine. After centrifuging, the supernatant was removed, the sedimented cells were washed twice with sterile distilled water and a cell suspension was adjusted to 80% transmission at 520 nm using a Beckman DB-GT grating spectrophotometer.
(§5) Sterile liquified 2% purified agar was placed in petri dishes and allowed to harden. The surface of the agar was inoculated with a sterile cotton swab saturated with a suspension of an organism. The uniformly swabbed plates were then allowed to dry.
(§6) Disks were prepared using the dilutions described above for amphotericin B, nystatin and 5-fluorocytosine. 0.05 ml of the dilutions of each antifungal agent diluted with the appropriate nutrient medium were pipetted on 6.5 mm diameter disks. The disks were dried at 4° C. after each application. Control disks were also prepared.
(§7) Several test disks and a control disk were placed in each petri dish containing the inoculated agar. The disks and petri dishes were then incubated at 29° C. and the minimum inhibitory concentration of the various concentrations of the antifungal agents were read at 6, 12, 24, 36 and 48 hours.
(§8) In 10 duplicate runs with each strain tested, the variation in minimum inhibitory concentration averaged ±0.05 μg/ml.

[2] = system: Candida albicans; experiment: MIC by broth dilution method, Candida albicans; type: cell-based; conditions: Candida albicans
From the text: (§9) The preparation of the nutrient media, the antifungal agents and the fungi to be tested in the present invention are similar to those reported in S. Shadomy and A. Espinel-Ingroff, "Susceptibility Testing Of Antifungal Agents", Ch. 63, pp. 569-574 in E. H. Lennett, E. H. Spaulding, and J. P. Truant, Eds., Manual Of Clinical Microbiology, 2nd Ed., American Society for Microbiology, Washington, D.C. (1974). This publication describes the susceptibility testing of antifungal agents, namely, amphotericin B, nystatin and 5-fluoro-cytosine (5-FC), by the "broth dilution method" and the "semisolid agar dilution method". At pages 570-571, it is stated:
as §8
(§10) *Broth dilution method conducted in accordance with S. Shadomy and E.
(§11) Espinel-Ingroff, "Susceptibility Testing of Antifungal Agents", Ch. 63,
(§12) pp. 569-574 in E. H. Spaulding and J. P. Truant, Eds., Manual Of Clinical
(§13) Microbiology, 2nd Ed., American Society for Microbiology, Washington, […]

[3] = system: C. parapsilosis; experiment: MIC by impregnated disk method, Candida parapsilosis; type: cell-based; conditions: Lodderomyces parapsilosis
Method: as §1, §2, §3, §4, §5, §6, §7, §8

[4] = system: C. parapsilosis; experiment: MIC by broth dilution method, Candida parapsilosis; type: cell-based; conditions: Lodderomyces parapsilosis
From the text: as §9, §8, §10, §11, §12, §13

[5] = system: C. tropicalis; experiment: MIC by impregnated disk method, Candida tropicalis; type: cell-based; conditions: Candida tropicalis, read-out: Minimum Inhibitory Concentration, Disk
Method: as §1, §2
(§14) The minimum inhibitory concentration is defined as the lowest concentration of antifungal agent which inhibits visible growth. […]
(§15) Several test disks and a control disk were placed in each petri dish containing the inoculated agar. The disks and petri dishes were then incubated at 29° C. and the minimum inhibitory concentration of the various concentrations of the antifungal agents were read at 6, 12, 24, 36 and 48 hours. […]

[6] = system: Cryptococcus neoformans; experiment: MIC by impregnated disk method, Cryptococcus neoformans; type: cell-based; conditions: Cryptococcus neoformans
Method: as §1, §2, §3, §4, §5, §6, §7, §8

[7] = system: Cryptococcus neoformans; experiment: MIC by broth dilution method, Cryptococcus neoformans; type: cell-based; conditions: Cryptococcus neoformans
From the text: as §9, §8, §10, §11, §12, §13

[8] = system: Geotrichum candidum; experiment: MIC by impregnated disk method, Geotrichum candidum; type: cell-based; conditions: read-out: Minimum Inhibitory Concentration, Disk
Method: as §1, §2, §14, §15

[9] = system: Saccharomyces cerevisiae; experiment: MIC by broth dilution method, Saccharomyces cerevisiae; type: cell-based; conditions: Saccharomyces cerevisiae
From the text: as §9, §8, §10, §11, §12, §13

[10] = system: Trichosporon sp.; experiment: MIC by impregnated disk method, Trichosporon sp.; type: cell-based; conditions: Trichosporon, read-out: Minimum Inhibitory Concentration, Disk
Method: as §1, §2, §14, §15

[11] = system: Torulopsis glabrata; experiment: MIC by impregnated disk method, Torulopsis glabrata; type: cell-based; conditions: Nakaseomyces glabratus, read-out: Minimum Inhibitory Concentration, Disk
Method: as §1, §2, §14, §15

[12] = system: Torulopsis glabrata; experiment: MIC by broth dilution method, Torulopsis glabrata; type: cell-based; conditions: Nakaseomyces glabratus, read-out: Minimum Inhibitory Concentration, Broth
From the text: as §9, §8, §10, §11, §12, §13

[13] = cited from earlier work

C[C@@H]1[C@H](O)[C@@H](C)/C=C/C=C/C=C/C=C/C=C/C=C/C=C/[C@H](O[C@@H]2O[C@H](C)[C@@H](O)[C@H](N)[C@@H]2O)C[C@@H]2O[C@](O)(C[C@@H](O)C[C@@H](O)[C@H](O)CC[C@@H](O)C[C@@H](O)CC(=O)O[C@H]1C)C[C@H](O)[C@H]2C(=O)O [Amphotericin B, amphotericin B]
MIC ([1]; isolate 1, read-out: Minimum Inhibitory Concentration, Disk): 0.3 mg/L (≈ 0.325 µM)
MIC ([1]; isolate 2, read-out: Minimum Inhibitory Concentration, Disk): 0.6 mg/L (≈ 0.649 µM)
MIC ([1]; isolate 3, read-out: Minimum Inhibitory Concentration, Disk): 0.08 mg/L (≈ 0.0866 µM)
MIC ([1]; isolate 4, read-out: Minimum Inhibitory Concentration, Disk): 0.6 mg/L (≈ 0.649 µM)
MIC ([1]; isolate 5, read-out: Minimum Inhibitory Concentration, Disk): 0.9 mg/L (≈ 0.974 µM)
MIC ([1]; isolate 6, read-out: Minimum Inhibitory Concentration, Disk): 1 mg/L (≈ 1.08 µM)
MIC ([2]; isolate 1, read-out: Minimum Inhibitory Concentration, Broth): 0.4 mg/L (≈ 0.433 µM)
MIC ([2]; isolate 2, read-out: Minimum Inhibitory Concentration, Broth): 0.7 mg/L (≈ 0.758 µM)
MIC ([2]; isolate 3, read-out: Minimum Inhibitory Concentration, Broth): 0.1 mg/L (≈ 0.108 µM)
MIC ([2]; isolate 4, read-out: Minimum Inhibitory Concentration, Broth): 0.6 mg/L (≈ 0.649 µM)
MIC ([2]; isolate 5, read-out: Minimum Inhibitory Concentration, Broth): 0.8 mg/L (≈ 0.866 µM)
MIC ([2]; isolate 6, read-out: Minimum Inhibitory Concentration, Broth): 1.5 mg/L (≈ 1.62 µM)
MIC ([3]; read-out: Minimum Inhibitory Concentration, Disk, C. parapsilosis isolate 1): 0.5 mg/L (≈ 0.541 µM)
MIC ([3]; read-out: Minimum Inhibitory Concentration, Disk, C. parapsilosis isolate 2): 0.6 mg/L (≈ 0.649 µM)
MIC ([4]; read-out: Minimum Inhibitory Concentration, Broth, C. parapsilosis isolate 1): 0.8 mg/L (≈ 0.866 µM)
MIC ([4]; read-out: Minimum Inhibitory Concentration, Broth, C. parapsilosis isolate 2): 0.6 mg/L (≈ 0.649 µM)
MIC [5]: 0.7 mg/L (≈ 0.758 µM)
MIC ([6]; read-out: Minimum Inhibitory Concentration, Disk, C. neoformans isolate 2): 0.2 mg/L (≈ 0.216 µM)
MIC ([6]; read-out: Minimum Inhibitory Concentration, Disk, C. neoformans isolate 3): 0.5 mg/L (≈ 0.541 µM)
MIC ([6]; read-out: Minimum Inhibitory Concentration, Disk, Cryptococcus neoformans isolate 1): 0.4 mg/L (≈ 0.433 µM)
MIC ([7]; read-out: Minimum Inhibitory Concentration, Broth, C. neoformans isolate 2): 0.4 mg/L (≈ 0.433 µM)
MIC ([7]; read-out: Minimum Inhibitory Concentration, Broth, C. neoformans isolate 3): 0.5 mg/L (≈ 0.541 µM)
MIC ([7]; read-out: Minimum Inhibitory Concentration, Broth, Cryptococcus neoformans isolate 1): 0.5 mg/L (≈ 0.541 µM)
MIC [8]: 0.8 mg/L (≈ 0.866 µM)
MIC ([9]; read-out: Minimum Inhibitory Concentration, Broth, S. cerevisiae isolate 2): 0.8 mg/L (≈ 0.866 µM)
MIC ([9]; read-out: Minimum Inhibitory Concentration, Broth, Saccharomyces cerevisiae isolate 1): 0.4 mg/L (≈ 0.433 µM)
MIC [10]: 0.9 mg/L (≈ 0.974 µM)
MIC [11]: 0.2 mg/L (≈ 0.216 µM)
MIC [12]: 0.3 mg/L (≈ 0.325 µM)
stability in acid ([13]; in the presence of acid): unstable in the presence of acid
thermal stability ([13]; upon incubation): subject to thermal destruction upon incubation
solubility in water ([13]; water): insoluble in water
